Test results published in PMC8079033, “Design, synthesis, anticancer evaluation, and molecular modelling studies of novel tolmetin derivatives as potential VEGFR-2 inhibitors and apoptosis inducers” (Journal of Enzyme Inhibition and Medicinal Chemistry, 2021).

Columns and labels:
HCT-116 = test: NCI 60-cell line one-dose antiproliferative screen (SRB); format: cell-based; conditions: Homo sapiens, read-out: growth inhibition % (GI%)
Procedure: (§1) Anticancer activity screening of the newly synthesised compounds was measured in vitro utilising 60 different human tumour cell lines provided by US National Cancer Institute according to previously reported standard procedure[41–43] as follows: Cells are inoculated into 96-well microtiter plates in 100 ml. After cell inoculation, the microtiter plates are incubated at 37 °C, 5% CO2, 95% air, and 100% relative humidity for 24 h prior to addition of experimental compounds. After 24 h, two plates of each cell line are fixed in situ with TCA, to represent a measurement of the cell population for each cell line at the time of compound addition (Tz). Experimental compounds are solubilised in dimethyl sulfoxide at 400-fold the desired final maximum test concentration and stored frozen prior to use. At the time of compound addition, an aliquot of frozen concentrate is thawed and diluted to twice the desired final maximum test concentration with a complete medium containing […] gentamicin. Aliquots of […] of the compounds dilutions are added to the appropriate microtiter wells already containing 100 ml of medium, resulting in the required final compound concentration. Following compound addition, the plates are incubated for an additional 48 h at 37 °C, 5% CO2, 95% air, and 100% relative humidity. For adherent cells, the assay is terminated by the addition of cold trichloroacetic acid (TCA). Cells are fixed in situ by the gentle addition of 50 ml of cold 50% (w/v) TCA (final concentration, 10% TCA) and incubated for […] at 4 °C. The supernatant is discarded, and the plates are washed five times with tap water and air-dried. Sulforhodamine B (SRB) solution (100 ml) at 0.4% (w/v) in 1% acetic acid is added to each well, and plates are incubated for 10 min at room temperature. After staining, the unbound dye is removed by washing five times with 1% acetic acid and the plates are air-dried. The bound stain is subsequently solubilised with a 10 mM trizma base, and the absorbance is read on an automated plate reader at a wavelength of 515 nm. For suspension cells, the methodology is the same except that the assay is terminated by fixing settled cells at the bottom of the wells by gently adding 50 ml of 80% TCA (final concentration, 16% TCA). Using the absorbance measurements [time zero, (Tz), control growth, (C), and test growth in the presence of compound (Ti)], the percentage growth is calculated for each compound. The One-dose data are reported as a mean graph of the percent growth of treated cells. The reported number is growth relative to the no-compound control, and relative to the time zero number of cells. This allows the detection of both growth inhibition and lethality.
(§2) Fifteen newly synthesised compounds were tested for their in vitro antiproliferative activity by the National Cancer Institute (NCI), Maryland, USA[50], under the Developmental Therapeutic Program (DTP)[41]^,[43]^,[51]^,[52]. The tested compounds were evaluated at a concentration of 10 µM on a panel of 60 tumour cell lines representing leukaemia and non-small cell lung, colon, CNS, melanoma, ovarian, renal, prostate, and breast cancers. The antiproliferative activity was presented by the NCI as percent growth of the treated cells and is presented in Table 1 as growth inhibition percentage (GI%) achieved by the tested compounds.

NCI-H226 = test: as above; format: cell-based; conditions: Homo sapiens, read-out: growth inhibition % (GI%)
Procedure: as §1, §2

K-562 = test: as above; format: cell-based; conditions: Homo sapiens, K562, read-out: growth inhibition % (GI%)
Procedure: as §1, §2

SNB-19 = test: as above; format: cell-based; conditions: Homo sapiens, read-out: growth inhibition % (GI%)
Procedure: as §1, §2

UACC-257 = test: as above; format: cell-based; conditions: Homo sapiens, read-out: growth inhibition % (GI%)
Procedure: as §1, §2

MCF7 = test: as above; format: cell-based; conditions: Homo sapiens, read-out: growth inhibition % (GI%)
Procedure: as §1, §2

MDA-MB-231/ATCC = test: as above; format: cell-based; conditions: Homo sapiens, read-out: growth inhibition % (GI%)
Procedure: as §1, §2

ACHN = test: as above; format: cell-based; conditions: Homo sapiens, read-out: growth inhibition % (GI%)
Procedure: as §1, §2

SN 12 C = test: as above; format: cell-based; conditions: Homo sapiens, SN12C, read-out: growth inhibition % (GI%)
Procedure: as §1, §2

MOLT-4 = test: as above; format: cell-based; conditions: Homo sapiens, read-out: growth inhibition % (GI%)
Procedure: as §1, §2

SF-539 = test: as above; format: cell-based; conditions: Homo sapiens, read-out: growth inhibition % (GI%)
Procedure: as §1, §2

OVCAR-5 = test: as above; format: cell-based; conditions: Homo sapiens, read-out: growth inhibition % (GI%)
Procedure: as §1, §2

HOP-62 = test: as above; format: cell-based; conditions: Homo sapiens, read-out: growth inhibition % (GI%)
Procedure: as §1, §2

RPMI-8226 = test: as above; format: cell-based; conditions: Homo sapiens, read-out: growth inhibition % (GI%)
Procedure: as §1, §2

UACC-62 = test: as above; format: cell-based; conditions: Homo sapiens, read-out: growth inhibition % (GI%)
Procedure: as §1, §2

SW-620 = test: as above; format: cell-based; conditions: Homo sapiens, read-out: growth inhibition % (GI%)
Procedure: as §1, §2

PC-3 = test: as above; format: cell-based; conditions: Homo sapiens, read-out: growth inhibition % (GI%)
Procedure: as §1, §2

EKVX = test: as above; format: cell-based; conditions: Homo sapiens, read-out: growth inhibition % (GI%)
Procedure: as §1, §2

OVCAR-4 = test: as above; format: cell-based; conditions: Homo sapiens, read-out: growth inhibition % (GI%)
Procedure: as §1, §2

UO-31 = test: as above; format: cell-based; conditions: Homo sapiens, read-out: growth inhibition % (GI%)
Procedure: as §1, §2

U251 = test: as above; format: cell-based; conditions: Homo sapiens, U-251, read-out: growth inhibition % (GI%)
Procedure: as §1, §2

HCC-2998 = test: as above; format: cell-based; conditions: Homo sapiens, read-out: growth inhibition % (GI%)
Procedure: as §1, §2

HOP-92 = test: as above; format: cell-based; conditions: Homo sapiens, read-out: growth inhibition % (GI%)
Procedure: as §1, §2

LOX IMVI = test: as above; format: cell-based; conditions: Homo sapiens, read-out: growth inhibition % (GI%)
Procedure: as §1, §2

CAKI-1 = test: as above; format: cell-based; conditions: Homo sapiens, read-out: growth inhibition % (GI%)
Procedure: as §1, §2

HCT-15 = test: as above; format: cell-based; conditions: Homo sapiens, read-out: growth inhibition % (GI%)
Procedure: as §1, §2

A549/ATCC = test: as above; format: cell-based; conditions: Homo sapiens, read-out: growth inhibition % (GI%)
Procedure: as §1, §2

T-47D = test: as above; format: cell-based; conditions: Homo sapiens, T47D, read-out: growth inhibition % (GI%)
Procedure: as §1, §2

SNB-75 = test: as above; format: cell-based; conditions: Homo sapiens, read-out: growth inhibition % (GI%)
Procedure: as §1, §2

A498 = test: as above; format: cell-based; conditions: Homo sapiens, read-out: growth inhibition % (GI%)
Procedure: as §1, §2

SK-MEL-5 = test: as above; format: cell-based; conditions: Homo sapiens, read-out: growth inhibition % (GI%)
Procedure: as §1, §2

NCI-H522 = test: as above; format: cell-based; conditions: Homo sapiens, read-out: growth inhibition % (GI%)
Procedure: as §1, §2

NCI-H23 = test: as above; format: cell-based; conditions: Homo sapiens, read-out: growth inhibition % (GI%)
Procedure: as §1, §2

BT-5 = test: as above; format: cell-based; conditions: Homo sapiens, read-out: growth inhibition % (GI%)
Procedure: as §1, §2

IGROV1 = test: as above; format: cell-based; conditions: Homo sapiens, IGROV-1, read-out: growth inhibition % (GI%)
Procedure: as §1, §2

HS 578 T = test: as above; format: cell-based; conditions: Homo sapiens, read-out: growth inhibition % (GI%)
Procedure: as §1, §2

SF-268 = test: as above; format: cell-based; conditions: Homo sapiens, read-out: growth inhibition % (GI%)
Procedure: as §1, §2

OVCAR-8 = test: as above; format: cell-based; conditions: Homo sapiens, read-out: growth inhibition % (GI%)
Procedure: as §1, §2

melting point: 245 to 247 °C
Compound: Cc1ccc(C(=O)c2ccc(CC(=O)NNC(=O)Nc3c(Cl)cccc3Cl)n2C)cc1 [Compound 8a, N-(2,6-Dichlorophenyl)-2–(2-(1-methyl-5–(4-methylbenzoyl)-1H-pyrrol-2-yl)acetyl) hydrazinecarboxamide]
inhibition at 10 µM (HCT-116): < 10% | inhibition at 10 µM (NCI-H226): < 10% | inhibition at 10 µM (K-562): < 10% | inhibition at 10 µM (SNB-19): 17.7% | inhibition at 10 µM (UACC-257): < 10% | inhibition at 10 µM (MCF7): 10% | inhibition at 10 µM (MDA-MB-231/ATCC): < 10% | inhibition at 10 µM (ACHN): < 10% | inhibition at 10 µM (SN 12 C): < 10% | inhibition at 10 µM (MOLT-4): < 10% | inhibition at 10 µM (SF-539): < 10% | inhibition at 10 µM (OVCAR-5): < 10% | inhibition at 10 µM (HOP-62): 11.4% | inhibition at 10 µM (RPMI-8226): < 10% | inhibition at 10 µM (UACC-62): 11.1% | inhibition at 10 µM (SW-620): < 10% | inhibition at 10 µM (PC-3): 10.5% | inhibition at 10 µM (EKVX): < 10% | inhibition at 10 µM (OVCAR-4): 16% | inhibition at 10 µM (UO-31): 31.1% | inhibition at 10 µM (U251): 11.7% | inhibition at 10 µM (HCC-2998): < 10% | inhibition at 10 µM (HOP-92): < 10% | inhibition at 10 µM (LOX IMVI): < 10% | inhibition at 10 µM (CAKI-1): 14.9% | inhibition at 10 µM (HCT-15): < 10% | inhibition at 10 µM (A549/ATCC): < 10% | inhibition at 10 µM (T-47D): 18% | inhibition at 10 µM (SNB-75): 28.1% | inhibition at 10 µM (A498): < 10% | inhibition at 10 µM (SK-MEL-5): < 10% | inhibition at 10 µM (NCI-H522): 15.9% | inhibition at 10 µM (NCI-H23): < 10% | inhibition at 10 µM (BT-5): < 10% | inhibition at 10 µM (IGROV1): 14% | inhibition at 10 µM (HS 578 T): < 10% | inhibition at 10 µM (SF-268): < 10% | inhibition at 10 µM (OVCAR-8): < 10%
